Source: patent US20080039442A1, “Compounds With Kv4 Ion Channel Activity” (Devgen NV, priority 2004, published 2008)

Experiments:
[1] = test system: isolated guinea pig right ventricular papillary muscle; test: Ex-vivo functional refractory period in isolated guinea pig papillary muscle; conditions: conc 10^−5 mol/l
Excerpt: (§1) The compounds were checked for their effect on the force of contraction, stimulation threshold and for the Functional Refractory Period (FRP) in isolated rat left atria (Rat LA). Rat left atria functionally express the Kv4.3 ion channel, producing the Ito current of the action potential. […] The guinea pig action potential is dominated by hERG like ion channels for the refractory currents. Consequently, activity of hERG channels in vivo should be seen in GP papillary muscle preparations.
Method: Rat LA (Same Method Applies to GP Pap. Muscle)
Left atria were mounted vertically in a two-chambered organ bath containing 100 ml of buffer solution (in mM: NaH2PO4 0.6, MgSO4 0.6, KCl 4.7, NaHCO3 25, glucose 4.5, NaCl 120, CaCl2 2.4). The solution was saturated with and circulated by a gas mixture containing 95% O2 and 5% CO2. The temperature was kept constant at 30° C. […] The isometric force of the preparations was measured by force transducers, connected to amplifiers, documented by a pen recorder and fed into a computer for evaluation. Force of contraction (FC), threshold stimulus (TS) and the functional refractory period (FRP) were measured at baseline (pre), 20 min after addition of compound, and after washout at the end of the experiment. Threshold stimulus, representing excitability of the tissue, was assessed by varying the voltage applied for electrical stimulation. […]

hERG potassium channel = hERG potassium channel (Homo sapiens, UniProt Q12809)
isolated rat left atria = test: Ex-vivo functional refractory period in isolated rat left atria; conditions: conc 10^−5 mol/l
Excerpt: as §1
Left atria were mounted vertically in a two-chambered organ bath containing 100 ml of buffer solution (in mM: NaH2PO4 0.6, MgSO4 0.6, KCl 4.7, NaHCO3 25, glucose 4.5, NaCl 120, CaCl2 2.4). […] The isometric force of the preparations was measured by force transducers, connected to amplifiers, documented by a pen recorder and fed into a computer for evaluation. Force of contraction (FC), threshold stimulus (TS) and the functional refractory period (FRP) were measured at baseline (pre), 20 min after addition of compound, and after washout at the end of the experiment. Threshold stimulus, representing excitability of the tissue, was assessed by varying the voltage applied for electrical stimulation. […] The functional refractory period, representing the time needed for repolarization, was assessed by applying extra stimuli at varying time intervals from the preceding regular pacing stimulus. […]

[2] = test system: conscious telemetric mice; test: Telemetric ECG in conscious mice, consecutive i.p. dosing; type: in vivo, mice (NRMI)
Procedure: Male mice (NRMI) were anesthetized with a gas mixture of isoflurane, nitrous oxide and oxigen. Leads connected to a telemetry transmitter (TA10EA-F20, DSI, St. Paul, USA) were fixed by suture in the xiphoid and ventral neck region. The telemetry transmitter was placed under the skin on the back. Wounds were closed in layers and the animals were allowed to recover for at least 1 week.
On the day of the experiment the animals receive consecutive doses of vehicle i.p. at 60 min dosing intervals. ECG tracings (12 s duration) was recorded using the Data Sciences A.R.T. system. After completion of the experiment ECGs were analyzed automatically by Data Sciences ECG software (DSI, St. Paul, USA). QT and QRS intervals were measured manually in the stored ECGs. QTc was calculated from the QT interval and the corresponding heart rate using Bazett's formula. Heart rate was taken from the online analysis, given by the DSI Labpro and DSI A.R.T. systems (DSI, St. Paul, USA). Finally, ECG intervals were transferred to an Excel spreadsheet, checked for plausibility, and converted into 15 min averages.

hERG potassium channel, sequence (Q12809 whole entry): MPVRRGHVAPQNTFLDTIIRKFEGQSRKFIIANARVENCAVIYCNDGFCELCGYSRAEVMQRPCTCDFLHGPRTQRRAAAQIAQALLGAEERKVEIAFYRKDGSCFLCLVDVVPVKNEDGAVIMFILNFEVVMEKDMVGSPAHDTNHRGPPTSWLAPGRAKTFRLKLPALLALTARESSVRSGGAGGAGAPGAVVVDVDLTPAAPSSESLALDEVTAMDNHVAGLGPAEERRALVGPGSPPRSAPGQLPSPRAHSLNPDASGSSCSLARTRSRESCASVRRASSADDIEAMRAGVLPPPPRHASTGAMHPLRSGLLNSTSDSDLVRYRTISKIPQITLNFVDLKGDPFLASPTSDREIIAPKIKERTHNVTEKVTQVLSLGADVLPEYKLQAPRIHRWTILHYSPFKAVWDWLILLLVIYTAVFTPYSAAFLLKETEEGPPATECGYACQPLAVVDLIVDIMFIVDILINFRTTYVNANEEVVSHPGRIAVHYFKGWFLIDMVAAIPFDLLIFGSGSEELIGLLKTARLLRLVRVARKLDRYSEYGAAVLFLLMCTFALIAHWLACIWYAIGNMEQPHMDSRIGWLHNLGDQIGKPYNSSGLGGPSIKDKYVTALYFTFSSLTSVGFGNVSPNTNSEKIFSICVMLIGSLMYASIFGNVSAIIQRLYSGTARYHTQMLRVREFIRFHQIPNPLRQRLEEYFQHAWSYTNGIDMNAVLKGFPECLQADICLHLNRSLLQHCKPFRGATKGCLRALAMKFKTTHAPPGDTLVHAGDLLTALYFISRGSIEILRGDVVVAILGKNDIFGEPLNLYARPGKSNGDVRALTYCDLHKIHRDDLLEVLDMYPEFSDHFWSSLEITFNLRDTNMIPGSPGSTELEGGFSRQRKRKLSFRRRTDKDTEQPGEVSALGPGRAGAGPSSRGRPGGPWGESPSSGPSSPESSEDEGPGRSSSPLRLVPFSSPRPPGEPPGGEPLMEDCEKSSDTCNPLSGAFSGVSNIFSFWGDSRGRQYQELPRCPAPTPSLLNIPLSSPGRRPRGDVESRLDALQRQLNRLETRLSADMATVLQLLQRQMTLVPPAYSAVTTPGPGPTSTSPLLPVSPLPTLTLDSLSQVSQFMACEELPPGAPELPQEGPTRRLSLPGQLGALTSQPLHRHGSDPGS

With “5-chloro-benzofuran-2- carboxylic acid 2,4- dimethoxy- benzylamide [Compound 2]” as the substance, how does the “dFRP Guinea Pig” value [1] read?
The value was 0 ms.

What about the IC50 (hERG potassium channel) of the same substance?
Its IC50 is 16.7 µM.

What about the “Ratio hERG/Kv4.3” value (hERG potassium channel) of the same substance?
Its value is 9.6.

What about the “dFRP Rat” value (isolated rat left atria) of the same substance?
The value was 17 ms.

What about the “maximum prolongation of QTc” value ([2]; 15 μmol/kg i.p., highest dose tested, Bazett, n=5) of the same substance?
Its value is 33 ms.

What about the “maximum prolongation of QT” value ([2]; 15 μmol/kg i.p., highest dose tested, n=5) of the same substance?
Its value is 12 ms.

And the “Heart rate (result in words)” value ([2]; 3-15 μmol/kg i.p.)?
Its value is “minor and not significant decrease”.

What about the “Locomotor activity (result in words)” value ([2]; 3-15 μmol/kg i.p.) of the same substance?
Its value is “reproducible rise after each of the subsequent injections”.

And the “PQ and QRS (result in words)” value ([2]; 3-15 μmol/kg i.p.)?
Its value is “did not show dose-dependent changes”.
